The results in this text go back to BindingDB's records for doi:10.1038/sj.mp.4000336 (University of Toronto, 1998).

As a reminder, the Ki is the equilibrium dissociation constant of an inhibitor or competing ligand from its target.

Sequence of 5-hydroxytryptamine receptor 2A (P14842 whole entry): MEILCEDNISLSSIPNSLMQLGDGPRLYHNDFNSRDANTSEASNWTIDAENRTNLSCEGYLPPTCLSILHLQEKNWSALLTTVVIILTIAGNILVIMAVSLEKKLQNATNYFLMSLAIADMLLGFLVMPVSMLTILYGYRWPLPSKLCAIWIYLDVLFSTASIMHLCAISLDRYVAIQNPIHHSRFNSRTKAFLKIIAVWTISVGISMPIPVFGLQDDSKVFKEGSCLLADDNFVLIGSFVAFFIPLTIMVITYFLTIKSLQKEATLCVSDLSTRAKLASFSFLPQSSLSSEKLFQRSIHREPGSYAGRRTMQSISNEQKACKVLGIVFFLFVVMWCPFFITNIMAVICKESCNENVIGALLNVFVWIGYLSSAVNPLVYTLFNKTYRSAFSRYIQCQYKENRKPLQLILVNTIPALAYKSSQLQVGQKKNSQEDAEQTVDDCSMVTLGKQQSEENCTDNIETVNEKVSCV

The assay concerns the target 5-hydroxytryptamine receptor 2A (Rattus norvegicus, UniProt P14842).
The compound `CCN1CCC[C@H]1CNC(=O)c1c(OC)ccc(Br)c1OC` showed a Ki of 5.2 µM.

Consider `CCN1CCC[C@H]1CNC(=O)c1c(O)c(Cl)cc(Cl)c1OC` [3,5-Dichloro-N-(1-ethyl-pyrrolidin-2-ylmethyl)-2-hydroxy-6-methoxy-benzamide (raclopride)], for which the affinity, expressed as Ki, was 4 µM.

Consider `O=C1C2CCCCC2C(=O)N1CCCCN1CCN(c2nsc3ccccc23)CC1` (stereo not drawn) [NSC_115368], for which the affinity corresponds to a Ki of 0.0013 µM.
